Source: patent US12169196B2, “Human iPSC-based drug testing platform for muscular dystrophy” (The Johns Hopkins University, priority 2019, dated 2024)

Legend:
mdx^5cv mice = experiment: Evans blue staining and central nucleated fiber histology; type: in vivo, mouse; details: 8 weeks treatment
Source text: All animal experiments were approved by the Institutional Animal Care and Use Committee (IACUC) of The Johns Hopkins University, School of Medicine (Baltimore, Maryland). Mdx^5cv (B6Ros.Cg-Dmdmdx-5Cv/J) were obtained from The Jackson Laboratory. Mice were maintained in a 12-h light cycle (7 am-7 pm) with ad libitum access to food and water. […] Ginsenoside Rd was suspended in saline containing 10% 1,3-propanediol as vector.
Gastrocnemius, tibialis anterior, and diaphragm muscles were embedded in OCT, frozen in isopentane, and cross-sectioned (˜2-10 μm thickness). The sections were also stained with DAPI to visualize nuclei. In mice where Evans blue dye (EBD, 10 mg/ml) was used to evaluate membrane damage, EBD was injected at 0.05 ml/10 g intraperitoneally, 24 hours before sacrificing the mice. To evaluate EBD staining, gastrocnemius muscle sections were fixed with acetone and imaged with fluorescence microscopy. The area of EBD as a percentage of total area was calculated. To evaluate the number of central nucleated fibers, sections of the tibialis anterior muscle were stained with hematoxylin and eosin. Central nucleated fiber number was counted and analyzed against total fiber number. Diaphragm sections (10 μm) were stained with Masson's trichrome to determine collagen content. The stained areas were quantified against the total area.

D2 myoblasts = test system: D2 myoblasts
Protocol: FIG. 7A: 9 primary hit compounds dose-response measured by MyHC antibody immunofluorescent intensity/nuclei. Concentrations of compounds were 0.001, 0.01, 0.1, 1, 2, 3, 4, 6 μM, except for saponin Q. which was 0.001, 0.01, 0.1, 0.2, 0.4, 0.6, 1 μM (n=3 for all). FIG. 7B: 9 primary hit compounds dose-response measured by α-actinin antibody immunofluorescent intensity/nuclei. Concentrations were same as in (FIG. 7A) (n=3 for all). FIGS. 7C-7E: Dose-response measured by cell average length of 3 analogs of saponin Q (n=3). […] (Data=Mean±SEM).
To further evaluate the efficacy of the 9 hit compounds and determine their optimal concentrations, an 8-point dose response assay was conducted, based on three parameters: anti-MyHC immunocytochemistry, anti-α-actinin immunocytochemistry and average cell length (FIGS. 7A-7B).

ERK1/2 = experiment: Western blot of phosphorylated ERK 1/2 in D2 myoblasts; type: cell-based, human; details: ginsenoside 25 μM or FLT3 recombinant protein 100 ng/ml, 30 min
Protocol: FIG. 3C, 3E: Quantification of western blot of phosphorylated ERK 1/2 (p-ERK 1/2) in D2 myoblasts treated with ginsenoside (25 μM), FLT3 recombinant protein (100 ng/ml) or DMSO for 30 min, n=4, *P≤0.05. […] (Data=Mean±SEM, FIGS. 3D, 3E: one-way ANOVA with Dunnett's multiple comparison test with DMSO negative control, FIG. 3G: one-way ANOVA with Tukey's multiple comparison test).
Whole-cell extracts were prepared by lysing cells on plate with RIPA buffer (CST) supplemented by proteinase inhibitor and phosphatase inhibitor cocktail (CST). […] Protein transfer was performed with the Bio-Rad turbo or wet/tank blotting system. Nitrocellulose membranes were incubated with primary antibodies overnight at 4° C. Membranes were then incubated with a secondary IRDye 800 conjugated anti-rabbit IgG, or Alexa Fluor 680 anti-mouse IgG and proteins were visualized and quantified using the LI-COR Odyssey Infrared Imaging System (LI-COR). Primary antibodies applied in this study were all purchased from Cell Signaling Technology except for the MEF2C antibody, which was from Sigma.

FLT3 signaling pathway = details: 5 μM, 24 h
Source text: Triplicate samples were used in microarray analysis. […] RNA was isolated using TRIzol (Invitrogen Life Technologies, Carlsbad, CA) followed by purification and DNase digestion using RNeasy mini kits (Qiagen, Venlo, Netherlands) according to manufacturer's instructions. […] Generation of sense strand cDNA from purified total RNA was followed by second strand synthesis, in vitro transcription cDNA synthesis, and single stranded cDNA synthesis and RNA hydrolysis. Fragmentation and labelling were performed according to manufacturer's instructions (GeneChip WT Plus reagent kit, Affymetrix, Santa). RNA extraction and qPCR were performed according to previous protocols, and primers are included in Table 1. The microarray data has been deposited in NCBI's Gene Expression Omnibus database and is accessible through the GEO series accession number GSE121023.

CC(C)=CCC[C@](C)(O[C@@H]1O[C@H](CO)[C@@H](O)[C@H](O)[C@H]1O)[C@H]1CC[C@]2(C)[C@@H]1[C@H](O)C[C@@H]1[C@@]3(C)CC[C@H](O[C@@H]4O[C@H](CO)[C@@H](O)[C@H](O)[C@H]4O[C@@H]4O[C@H](CO)[C@@H](O)[C@H](O)[C@H]4O)C(C)(C)[C@@H]3CC[C@]12C [ginsenoside Rd]
number of Evans blue dye positive fibers (mdx^5cv mice; gastrocnemius): not significantly different
central nucleated fibers (mdx^5cv mice; tibialis anterior): not significantly different
fusion of DMD hiPSC-derived myoblasts (D2 myoblasts): helped restore fusion
toxicity / cell death (D2 myoblasts): lower toxicity
dose-dependent effect on D2 myoblasts (cell average length) (D2 myoblasts; saponin analog test): dose-dependent effect
ERK1/2 activation (p-ERK 1/2) (ERK1/2): activated
ingenuity pathway analysis z-score, FLT3 signaling pathway (FLT3 signaling pathway): > 2
